Assay results: US6310081A, “Biphenyl sulfonyl aryl carboxylic acids useful in the treatment of insulin resistance and hyperglycemia” (American Home Products Corporation, priority 2001, dated 2001)

Experiments:
[1] = test system: diabetic (ob/ob) mice; experiment: blood glucose lowering activity in diabetic (ob/ob) mice; assay type: in vivo, mouse (ob/ob, C57 B1/6J); settings: positive control, 100 mg/kg/day
Excerpt: The procedures used and results obtained are briefly described below.
The no -insulin dependent diabetic (NIDDM) syndrome can be typically characterizes by obesity, hyperglycemia, abnormal insulin secretion, hyperinsulinemia and insulin resistance.
In each test procedure, mice [Male or female ob/ob (C57 B1/6J) and their lean litermates (ob/+ or +/+, Jackson Laboratories) ages 2 to 5 months (10 to 65 g)] of a similar age were randomized according to body weight into 4 groups of 10 mice. The mice were housed 5 per cage and are maintained on normal rodent chow with water ad libitum. Mice received test compound daily by gavage (suspended in 0.5 ml of 0.5% methyl cellulose); dissolved in the drinking water; or admixed in the diet. The dose of compounds given ranges from 2.5 to 200 mg/kg body weight/day. The dose is calculated based on the fed weekly body weight and is expressed as active moiety. […] Control mice received vehicle only.
On the morning of Day 4, 7 or 14 two drops of blood (approximetly 50 ul) were collected into sodium fluoride containing tubes either from the tail vein or after decapitation. […] The plasma was isolated by centrifugation and the concentration of glucose is measured enzymatically on an Abbott V.P. Analyzer.
For each mouse, the percentage change in plasma glucose on Day 4, 7 or 14 is calculated relative to the mean plasma glucose of the vehicle treated mice. […]

[2] = biological target: T1, hPTP1B (Homo sapiens, UniProt P18031); experiment: Inhibition of Tri-Phosphorylated Insulin Receptor Dodecaphosphopeptide Dephosphorylation by hPTP1B; assay type: biochemical
T1 construct: made in house
T1 sequence (P18031 1-435): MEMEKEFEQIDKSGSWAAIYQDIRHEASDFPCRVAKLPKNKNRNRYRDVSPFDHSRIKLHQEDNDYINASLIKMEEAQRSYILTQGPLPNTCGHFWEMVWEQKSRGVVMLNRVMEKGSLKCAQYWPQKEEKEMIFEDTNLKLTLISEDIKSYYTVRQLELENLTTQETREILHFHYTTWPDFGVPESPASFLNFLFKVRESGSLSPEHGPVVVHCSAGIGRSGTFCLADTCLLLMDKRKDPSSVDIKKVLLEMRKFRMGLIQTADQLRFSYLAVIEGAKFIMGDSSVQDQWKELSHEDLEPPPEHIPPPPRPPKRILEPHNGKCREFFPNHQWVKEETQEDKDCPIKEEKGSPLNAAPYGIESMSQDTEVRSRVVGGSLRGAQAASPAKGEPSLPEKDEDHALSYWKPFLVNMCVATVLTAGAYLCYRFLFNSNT

In the case of `CC1(COc2ccc(CC3SC(=O)NC3=O)cc2)CCCCC1` (centres unmarked) [Ciglitazone, 5-(4-(1-methylcyclohexylmethoxy)benzyl)-2,4-dione], the “plasma glucose lowering (in words)” value [1] is reported as “significant lowering in plasma glucose”.

In the case of `Cc1oc(-c2ccc(C(F)(F)F)cc2)nc1-c1ccc(-c2ccc(OS(=O)(=O)c3ccc(C(=O)O)c(O)c3)cc2)cc1` [Example 14], the IC50 [2] is reported as 193 nM.
